Assays:
[1] = Ability to inhibit [3H]-MK-801 binding to N-methyl-D-aspartate glutamate receptor of rat cortical membranes
[2] = N-methyl-D-aspartate glutamate receptor antagonist activity was determined in rat cortical slice preparation; type: functional

Row | Structure (SMILES) | IC50 [1] [nM] | Kb [2] [nM]
1 | CC12N[C@H](Cc3ccccc31)C1=CCCCC12 (stereo not given in full) | 60 | 300
2 | CC12N[C@H](Cc3ccccc31)C1=CC=CCC12 (stereo not given in full) | 21 | 270
3 | CN1C2(C)c3ccccc3C1(C)C1CCCCC12 (stereo not given) | 111 | 
4 | CC12N[C@H](CC3CCCCC31)C1CCCCC12 (stereo not given in full) | 35 | 800
5 | OCCC12N[C@H](Cc3ccccc31)C1CCCCC12 (stereo not given in full) | 220 | 240
6 | COc1ccc2c(c1)C1(C)N[C@@H]2CC2CCCCC21 (stereo not given in full) | 240 | 310
7 | CC12N[C@H](CC3CCCCC31)c1ccccc12 (stereo not given in full) | 188 | 130
8 | CC12NC(Cc3ccccc31)CC1CCCCC12 (stereo not given) | 164 | 250
9 | CC12N[C@H](CC3=C1CCCC3)C1CCCCC12 (stereo not given in full) | 80 | 280
10 | OCCC12N[C@](O)(Cc3ccccc31)C1CCCCC12 (stereo not given in full) | 396 | 770
11 | CC12N[C@H](CC3=C1CCCC3)c1ccccc12 | 193 | 270
12 | CC12N[C@H](Cc3ccccc31)C1=C2CC=CC1 | 20 | 
13 | CN1[C@@H]2Cc3ccccc3[C@@]1(C)C1CCCCC12 (stereo not given in full) | 96 | 290
14 | CC12N[C@H](Cc3ccccc31)C1CCCCC12 (stereo not given in full) | 16 | 230
15 | CC12NC(Cc3ccccc31)c1ccccc12 (single isomer, unassigned) | 30.5 | 130
16 | CC12N[C@@H](C3CCCCC31)[C@H](O)c1ccccc12 (stereo not given in full) | 69 | 250

— ChEMBL document CHEMBL1124716, “Structure and activity of hydrogenated derivatives of (+)-5-methyl-10,11-dihydro-5H-dibenzo[a,d]cyclohepten-5,10-imine (MK-801)” (J Med Chem, 1990)
